The source of these data is patent US20250177426A1, “METHODS AND COMPOSITIONS FOR TREATING DEMENTIA” (Cognitive Synergy Corporation, priority 2023, published 2025).

Values joined by “and” are separate entries in the source; they are usually repeats but may differ in a detail not shown here. Identical values can stand only once.

For one assay, the target named is T1, Aβ protein (Homo sapiens, UniProt P05067).
T1 construct: The bar graph 700 includes a control sample with 10 μM Aβ protein
The experiment in a line: Aβ fibrillization, percent of control. Type of assay: biochemical. Particulars: for Aβ fibrillization as compared to control: FIG. 7; for fibrillization of Aβ protein: FIG. 9, control = 100; for Aβ fibrillization as compared to the control: FIG. 12. How it is done:
Referring to FIG. 7, FIG. 7 is a bar graph 700 showing a percentage of Aβ fibrillization as compared to a control for neoliquiritin, sebiricose A5, (Z)SA glycoside, and (E)SA glycoside. The bar graph 700 includes a control sample with 10 μM Aβ protein. The amount of Aβ fibrillization in the control sample is normalized to 100%. All other samples in the bar graph 700 include 10 μM Aβ protein and another compound at a concentration of 100 μM.
Referring to FIG. 8, FIG. 8 is a bar graph 800 showing a percentage of Aβ fibrillization as compared to a control for neoliquiritin samples of various concentrations. The amount of Aβ fibrillization in the control sample is normalized to 100%. All other samples in the bar graph 800 include 10 μM Aβ protein and a variable concentration of neoliquiritin.
Referring to FIG. 9, FIG. 9 is a bar graph 900 showing a percentage of Aβ fibrillization as compared to a control for neoliquiritin and liquiritigenin samples of various concentrations. Like the other bar graphs, the control sample is on the left side of the bar graph 900. The control sample comprises 10 μM Aβ protein and the percent fibrillization of Aβ protein in the control sample is normalized to 100. All other samples, which contain either neoliquiritin or liquiritigenin, also include a concentration of 10 μM Aβ protein.
Referring to FIG. 12, FIG. 12 is a bar graph 1200 showing a percentage of Aβ fibrillization as compared to a control for sinapic acid, trans-sinapic acid, and sinapic acid O-glucoside at various concentrations. On the left side of the bar graph 1200, a control sample comprising 10 μM Aβ protein has a fibrillization measurement normalized to 100. All other samples include the same concentration of 10 μM Aβ protein as a control sample.

A further assay relates to SH-SY5Y cells. Put plainly: Survival of SH-SY5Y cells in solutions of Aβ. Particulars: FIG. 11, Aβ-only control 69%. The assay is classed as cell-based. How it is done:
Referring to FIG. 10, FIG. 10 is a bar graph 1000 showing a percentage of survival of SH-SY5Y cells in solutions of Aβ and various concentrations of neoliquiritin. […] All the samples in the bar graph 1000 comprised the same concentration of 10 μM Aβ protein as the control sample as well as a variable concentration of neoliquiritin.
Referring to FIG. 11, FIG. 11 is a bar graph 1100 showing a percentage of survival of SH-SY5Y cells in solutions of neoliquiritin, isoliquiritigenin, isoliquiritin, sinapic acid O-glucoside, trans-sinapic acid, and liquiritigenin at various concentrations. […] The other samples in the bar graph 1100 all contain the same concentration of 10 μM Aβ protein as a control sample.

Another assay concerns the target T2, Aβ fibrils (Homo sapiens, UniProt P05067).
T2 construct: The bar graph 700 includes a control sample with 10 μM Aβ protein
Put plainly: Relative fluorescence of prefibrillated Aβ after timed treatment. Particulars: FIG. 14, 50 μM compound. Type of assay: biochemical. From the text: Control samples containing only Aβ protein as starting material are unshaded. Other samples containing Aβ protein and an additional compound have shading according to the legend on the bottom of the bar graphs 1400.

[1] abbreviates: 10 μM Aβ protein and 100 μM compound.
[2] abbreviates: 10 μM Aβ protein and 1 μM compound.
Where [3] appears, read: 10 μM Aβ protein and 10 μM compound.
Where [4] appears, read: 10 μM Aβ protein and 100 nM compound.

T1 sequence (P05067 672-711 limits assumed): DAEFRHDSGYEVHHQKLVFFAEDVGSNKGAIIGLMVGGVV
T2 sequence (P05067 672-711 limits assumed): as above

Take Sebiricose A5 [reference compound]: the “Aβ fibrillization as compared to control” value at Aβ protein (setting [1]) is given as 86%.

As for `O=C(/C=C/c1ccc(O[C@@H]2O[C@H](CO)[C@@H](O)[C@H](O)[C@H]2O)cc1)c1ccc(O)cc1O` [isoliquiritin], the “survival for the SH-SY5Y cells” value in the assay with SH-SY5Y cells (setting [2]) is given as 72%; in the assay on SH-SY5Y cells (setting [3]), 74%.

Regarding `O=C(/C=C/c1ccc(O)cc1)c1ccc(O)cc1O` [isoliquiritigenin], the “survival for the SH-SY5Y cells” value in the assay with SH-SY5Y cells (setting [2]) is 84%; in the assay on SH-SY5Y cells (setting [3]), 81%.

`O=C1C[C@@H](c2ccc(O)cc2)Oc2cc(O)ccc21` [liquiritigenin, reference compound]: the “fibrillization of Aβ protein” value at Aβ protein (100 nM compound and 10 μM Aβ protein) is 94%; at Aβ protein (10 μM compound and 10 μM Aβ protein), 92% and 90%; on Aβ protein (50 μM compound and 10 μM Aβ protein) it was 97%; on Aβ protein (100 μM compound and 10 μM Aβ protein), 83%. Moreover, the “survival for the SH-SY5Y cells” value in the assay on SH-SY5Y cells (setting [2]) and in the assay with SH-SY5Y cells (setting [3]) was 67% in each case.

Consider `COc1cc(/C=C/C(=O)O)cc(OC)c1O` [T-SA, trans-sinapic acid, reference compound], for which the “Relative fluorescence for Aβ fibrils” value is “approximately 850000 RFU” at Aβ fibrils (46.5 hours, Aβ only approximately 900000); “approximately 940000 RFU” at Aβ fibrils (48 hours, Aβ only approximately 1070000); “approximately 940000 RFU” at Aβ fibrils (60 hours, Aβ only approximately 1010000); “approximately 770000 RFU” on Aβ fibrils (72 hours, Aβ only approximately 980000). Further, the “Aβ fibrillization as compared to the control” value on Aβ protein (setting [4]) is reported as 98%; on Aβ protein (setting [2]), 95%; on Aβ protein (setting [3]), 89%; on Aβ protein (setting [1]), 79%. For the same compound, the figures for the “survival for the SH-SY5Y cells” value in the assay with SH-SY5Y cells (setting [2]) and in the assay on SH-SY5Y cells (setting [3]) were 76% and 77%, respectively.

Consider `COc1cc(/C=C/C(=O)O)cc(OC)c1O` [SA, sinapic acid, reference compound], for which the “Aβ fibrillization as compared to the control” value stood at 105% at Aβ protein (setting [4]), 101% on Aβ protein (setting [2]), 114% at Aβ protein (setting [3]) and 85% at Aβ protein (setting [1]).

For the compound `COc1cc(/C=C/C(=O)O)cc(OC)c1O[C@@H]1O[C@H](O)[C@@H](O)[C@H](O)[C@H]1O` [(E)SA glycoside], the “Aβ fibrillization as compared to control” value at Aβ protein (setting [1]) was found to be 51%.
